Starred links: 1 amine or outer side, 2 acyl side, 3 side chain; linkers in the order of their positions; H or OH if unused. Positions of bridges follow the written chain, without caps; N, C: chain ends. Non-standard residues stand in square brackets, D forms with d. Residues, ends and D or L forms follow the SMILES beside them. Groups on a side chain read outwards from the residue. *: point of attachment. C20 diacid = O=C(O)CCCCCCCCCCCCCCCCCCC(=O)*; Trp(1-Me) = Cn1cc(C[C@H](N)C(=O)O)c2ccccc21; C18 diacid = O=C(O)CCCCCCCCCCCCCCCCC(=O)*; C16 diacid = O=C(O)CCCCCCCCCCCCCCC(=O)*; γGlu = O=C(O)[C@H](CCC(=O)[*:2])N[*:1]; 2Nal = N[C@@H](Cc1ccc2ccccc2c1)C(=O)O; AEEA = NCCOCCOCC(=O)O; Sar = CNCC(=O)O Where only a bound is given, the exact number is not on record here.

The results in this text go back to US11965039B2, “Compstatin analogues and their medical uses” (priority 2018, dated 2024).

The first test deals with classical complement pathway. The test can be described thus: In vitro haemolysis assay (inhibition of classical complement pathway). The settings on record: human serum, sensitized sheep red blood cells; Table 3, cells printed in μM; read-out: IC50, inhibition of hemolysis. It is filed as cell-based, human. An outline of the steps: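 Compound dilutions preincubated 15 min at room temperature with diluted human serum (titrated per batch for 70-90% maximal haemolysis), then antibody-sensitized sheep RBC (10^7/well) added for 30 min at 37 °C in Tris/casein buffer, pH 7.4. Stopped with EDTA; haemolysis read at 405 nm; IC50 by 4PL fit.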
For `CC[C@H](C)[C@H](NC(C)=O)C(=O)N[C@H]1CSSC[C@@H](C(=O)N[C@H](C(N)=O)[C@@H](C)O)NC(=O)[C@H](CCCNC(=N)N)NC(=O)[C@H](Cc2c[nH]cn2)NC(=O)[C@H](Cc2c[nH]cn2)NC(=O)CNC(=O)[C@H](Cc2c[nH]c3ccccc23)NC(=O)[C@H](CC(=O)O)NC(=O)[C@H](CCC(N)=O)NC(=O)[C@H](C(C)C)NC(=O)[C@H](C(C)C)NC1=O` [Ac-compstatin, reference compound], the 50% inhibitory concentration (IC50) was greater than 5 µM.

Still in this test, the particulars now being: human serum, sensitized sheep red blood cells; Table 3, given as upper bounds; read-out: IC50, inhibition of hemolysis.
As for `CC[C@H](C)[C@H](NC(C)=O)C(=O)N[C@H]1CSSC[C@@H](C(=O)N[C@H](C(N)=O)[C@@H](C)O)NC(=O)[C@H](CCCNC(=N)N)NC(=O)[C@H](Cc2c[nH]cn2)NC(=O)[C@H](CCC(=O)O)NC(=O)CNC(=O)[C@H](Cc2c[nH]c3ccccc23)NC(=O)[C@H](CC(=O)O)NC(=O)[C@H](CCC(N)=O)NC(=O)[C@H](Cc2cn(C)c3ccccc23)NC(=O)[C@H]([C@@H](C)CC)NC1=O` [Compound 4] (Ac-ICI[Trp(1-Me)]QDWGEHRCT-NH2; disulfide 2-12), the IC50 was less than 0.1 µM. With `CC[C@H](C)[C@H](NC(C)=O)C(=O)N[C@H]1CSSC[C@@H](C(=O)N[C@H](C(=O)N[C@@H](CCC(=O)O)C(=O)NCC(=O)N[C@@H](CCC(=O)O)C(=O)N[C@@H](CCCCNC(=O)COCCOCCNC(=O)COCCOCCNC(=O)CC[C@H](NC(=O)CCCCCCCCCCCCCCC(=O)O)C(=O)O)C(N)=O)[C@@H](C)O)NC(=O)[C@H](CCCNC(=N)N)NC(=O)[C@H](Cc2c[nH]cn2)NC(=O)[C@H](CCC(=O)O)NC(=O)CNC(=O)[C@H](Cc2c[nH]c3ccccc23)NC(=O)[C@H](CC(=O)O)NC(=O)[C@H](CCC(N)=O)NC(=O)[C@H](Cc2c[nH]c3ccccc23)NC(=O)[C@H]([C@@H](C)CC)NC1=O` [Compound 94] (Ac-ICIWQDWGEHRCTEGEK([AEEA-AEEA-γGlu-C16 diacid])-NH2; disulfide 2-12), the half-inhibitory concentration (IC50) was less than 0.5 µM. On to `CC[C@H](C)[C@@H]1NC(=O)[C@@H](NC(=O)[C@H](Cc2ccccc2)NC(=O)[C@H](CCC(=O)O)NC(=O)[C@H](CO)NC(C)=O)CSSC[C@@H](C(=O)N(C)CC(=O)N[C@@H](CCC(=O)O)C(=O)NCC(=O)N[C@@H](CCC(=O)O)C(=O)NCCOCCOCC(=O)NCCOCCOCC(=O)N[C@@H](CCCCNC(=O)CC[C@H](NC(=O)CNC(=O)CC[C@H](NC(=O)CCCCCCCCCCCCCCC(=O)O)C(=O)O)C(=O)O)C(N)=O)NC(=O)[C@H](CCCNC(=N)N)NC(=O)[C@H](Cc2c[nH]cn2)NC(=O)[C@H](CCC(=O)O)NC(=O)CNC(=O)[C@H](Cc2c[nH]c3ccccc23)NC(=O)[C@H](CC(=O)O)NC(=O)[C@H](CCC(N)=O)NC(=O)[C@H](Cc2cn(C)c3ccccc23)NC1=O` [Compound 127] (Ac-SEFCI[Trp(1-Me)]QDWGEHRC[Sar]EGE[AEEA][AEEA]K([γGlu-Gly-γGlu-C16 diacid])-NH2; disulfide 4-14), for which the IC50 is less than 0.1 µM. Still for that read-out and setting: for `CC[C@H](C)[C@H](NC(C)=O)C(=O)N[C@H]1CSSC[C@@H](C(=O)N[C@H](C(N)=O)[C@@H](C)O)NC(=O)[C@H](CCCNC(=N)N)NC(=O)[C@H](Cc2c[nH]cn2)NC(=O)[C@H](CO)NC(=O)CNC(=O)[C@H](Cc2c[nH]c3ccccc23)NC(=O)[C@H](CC(=O)O)NC(=O)[C@H](CCC(N)=O)NC(=O)[C@H](Cc2c[nH]c3ccccc23)NC(=O)[C@H]([C@@H](C)CC)NC1=O` [Compound 6] (Ac-ICIWQDWGSHRCT-NH2; disulfide 2-12) the value was less than 0.25 µM. Take `CC[C@H](C)[C@H](NC(C)=O)C(=O)N[C@H]1CSSC[C@@H](C(=O)N[C@H](C(N)=O)[C@@H](C)O)NC(=O)[C@H](CCCNC(=N)N)NC(=O)[C@H](Cc2c[nH]cn2)NC(=O)[C@H](CC(=O)O)NC(=O)CNC(=O)[C@H](Cc2c[nH]c3ccccc23)NC(=O)[C@H](CC(=O)O)NC(=O)[C@H](CCC(N)=O)NC(=O)[C@H](Cc2c[nH]c3ccccc23)NC(=O)[C@H]([C@@H](C)CC)NC1=O` [Compound 17] (Ac-ICIWQDWGDHRCT-NH2; disulfide 2-12): the IC50 is less than 0.1 µM.

Take `CC[C@H](C)[C@@H]1NC(=O)[C@@H](NC(=O)[C@H](Cc2ccccc2)NC(=O)[C@H](CCC(=O)O)NC(=O)[C@H](CO)NC(C)=O)CSSC[C@@H](C(=O)N(C)CC(=O)N[C@@H](CCC(=O)O)C(=O)NCC(=O)N[C@@H](C)C(=O)N[C@@H](CCCCNC(=O)COCCOCCNC(=O)CC[C@H](NC(=O)COCCOCCNC(=O)CNC(=O)CC[C@H](NC(=O)CCCCCCCCCCCCCCCCC(=O)O)C(=O)O)C(=O)O)C(N)=O)NC(=O)[C@H](CCCNC(=N)N)NC(=O)[C@H](Cc2c[nH]cn2)NC(=O)[C@H](CCC(=O)O)NC(=O)CNC(=O)[C@H](Cc2c[nH]c3ccccc23)NC(=O)[C@H](CC(=O)O)NC(=O)[C@H](CCC(N)=O)NC(=O)[C@H](Cc2cn(C)c3ccccc23)NC1=O` [Compound 119] (Ac-SEFCI[Trp(1-Me)]QDWGEHRC[Sar]EGAK([AEEA-γGlu-AEEA-Gly-γGlu-C18 diacid])-NH2; disulfide 4-14): the IC50 was less than 0.1 µM.

For `CC[C@H](C)[C@@H]1NC(=O)[C@@H](NC(=O)[C@H](Cc2ccccc2)NC(=O)[C@H](CCC(=O)O)NC(=O)[C@H](CO)NC(C)=O)CSSC[C@@H](C(=O)N(C)CC(=O)N[C@@H](CCC(=O)O)C(=O)N[C@@H](C)C(N)=O)NC(=O)[C@H](CCCNC(=N)N)NC(=O)[C@H](Cc2c[nH]cn2)NC(=O)[C@H](CCC(=O)O)NC(=O)CNC(=O)[C@H](Cc2c[nH]c3ccccc23)NC(=O)[C@H](CC(=O)O)NC(=O)[C@H](CCC(N)=O)NC(=O)[C@H](Cc2cn(C)c3ccccc23)NC1=O` [Compound 75] (Ac-SEFCI[Trp(1-Me)]QDWGEHRC[Sar]EA-NH2; disulfide 4-14), the concentration for half-maximal inhibition (IC50) was less than 0.1 µM. Regarding `CC[C@H](C)[C@@H]1NC(=O)[C@@H](NC(=O)[C@H](Cc2ccccc2)NC(C)=O)CSSC[C@@H](C(=O)N[C@H](C(=O)NCC(=O)N[C@@H](C)C(=O)N[C@@H](CCC(=O)O)C(=O)N[C@@H](CO)C(N)=O)[C@@H](C)O)NC(=O)[C@H](CCCNC(=N)N)NC(=O)[C@H](Cc2c[nH]cn2)NC(=O)[C@H](CCC(=O)O)NC(=O)CNC(=O)[C@H](Cc2c[nH]c3ccccc23)NC(=O)[C@H](CC(=O)O)NC(=O)[C@H](CCC(N)=O)NC(=O)[C@H](Cc2ccc3ccccc3c2)NC1=O` [Compound 64] (Ac-FCI[2Nal]QDWGEHRCTGAES-NH2; disulfide 2-12), the IC50 is less than 0.1 µM. In the case of `CC[C@H](C)[C@@H]1NC(=O)[C@@H](NC(=O)[C@H](Cc2ccccc2)NC(=O)[C@H](CCC(=O)O)NC(C)=O)CSSC[C@@H](C(=O)N[C@@H](CCC(=O)O)C(=O)NCC(=O)N[C@@H](CCC(=O)O)C(=O)N[C@@H](CCCCNC(=O)CC[C@H](NC(=O)CNC(=O)CC[C@H](NC(=O)CCCCCCCCCCCCCCCCC(=O)O)C(=O)O)C(=O)O)C(N)=O)NC(=O)[C@H](CCCNC(=N)N)NC(=O)[C@H](Cc2c[nH]cn2)NC(=O)[C@H](CCC(=O)O)NC(=O)CNC(=O)[C@H](Cc2c[nH]c3ccccc23)NC(=O)[C@H](CC(=O)O)NC(=O)[C@H](CCC(N)=O)NC(=O)[C@H](Cc2cn(C)c3ccccc23)NC1=O` [Compound 134] (Ac-EFCI[Trp(1-Me)]QDWGEHRCEGEK([γGlu-Gly-γGlu-C18 diacid])-NH2; disulfide 3-13), the concentration for half-maximal inhibition (IC50) was less than 0.1 µM.

As for `CC[C@H](C)[C@@H]1NC(=O)[C@@H](NC(=O)[C@H](Cc2ccccc2)NC(=O)[C@H](CCC(=O)O)NC(=O)[C@H](CO)NC(C)=O)CSSC[C@@H](C(=O)N(C)CC(=O)N[C@@H](CCC(=O)O)C(=O)NCC(=O)N[C@@H](CCC(=O)O)C(=O)NCCOCCOCC(=O)NCCOCCOCC(=O)N[C@@H](CCCCNC(=O)CC[C@H](NC(=O)CNC(=O)CC[C@H](NC(=O)CCCCCCCCCCCCCCCCCCC(=O)O)C(=O)O)C(=O)O)C(N)=O)NC(=O)[C@H](CCCNC(=N)N)NC(=O)[C@H](Cc2c[nH]cn2)NC(=O)[C@H](CCC(=O)O)NC(=O)CNC(=O)[C@H](Cc2c[nH]c3ccccc23)NC(=O)[C@H](CC(=O)O)NC(=O)[C@H](CCC(N)=O)NC(=O)[C@H](Cc2cn(C)c3ccccc23)NC1=O` [Compound 128] (Ac-SEFCI[Trp(1-Me)]QDWGEHRC[Sar]EGE[AEEA][AEEA]K([γGlu-Gly-γGlu-C20 diacid])-NH2; disulfide 4-14), the half-maximal inhibitory concentration (IC50) was less than 0.1 µM. As for `CC[C@H](C)[C@H](NC(C)=O)C(=O)N[C@H]1CSSC[C@@H](C(=O)N[C@H](C(=O)NCC(=O)N[C@@H](C)C(=O)N[C@@H](CCC(=O)O)C(=O)N[C@@H](CO)C(N)=O)[C@@H](C)O)NC(=O)[C@H](CCCNC(=N)N)NC(=O)[C@H](Cc2c[nH]cn2)NC(=O)[C@H](C)NC(=O)CNC(=O)[C@H](Cc2c[nH]c3ccccc23)NC(=O)[C@H](CC(=O)O)NC(=O)[C@H](CCC(N)=O)NC(=O)[C@H](Cc2c[nH]c3ccccc23)NC(=O)[C@H]([C@@H](C)CC)NC1=O` [Compound 47] (Ac-ICIWQDWGAHRCTGAES-NH2; disulfide 2-12), the IC50 is less than 0.1 µM.

In the case of `CC[C@H](C)[C@@H]1NC(=O)[C@@H](NC(=O)[C@H](Cc2ccccc2)NC(=O)[C@H](CCC(=O)O)NC(=O)[C@H](CO)NC(C)=O)CSSC[C@@H](C(=O)N(C)CC(=O)N[C@@H](CCC(=O)O)C(=O)N[C@@H](C)C(N)=O)NC(=O)[C@H](CCCNC(=N)N)NC(=O)[C@H](Cc2c[nH]cn2)NC(=O)[C@H](CCC(=O)O)NC(=O)CNC(=O)[C@H](Cc2c[nH]c3ccccc23)NC(=O)[C@H](CCC(=O)O)NC(=O)[C@H](CCC(N)=O)NC(=O)[C@H](Cc2cn(C)c3ccccc23)NC1=O` [Compound 83] (Ac-SEFCI[Trp(1-Me)]QEWGEHRC[Sar]EA-NH2; disulfide 4-14), the concentration for half-maximal inhibition (IC50) is less than 0.1 µM.

The same test, now with this note: human serum, sensitized sheep red blood cells; Table 4, valine 3 vs isoleucine 3 pairs; read-out: CP hemolysis IC50.
Turning to `CC[C@H](C)[C@H](NC(C)=O)C(=O)N[C@H]1CSSC[C@@H](C(=O)N[C@H](C(N)=O)[C@@H](C)O)NC(=O)[C@H](CCCNC(=N)N)NC(=O)[C@H](Cc2c[nH]cn2)NC(=O)[C@H](CO)NC(=O)CNC(=O)[C@H](Cc2c[nH]c3ccccc23)NC(=O)[C@H](CC(=O)O)NC(=O)[C@H](CCC(N)=O)NC(=O)[C@H](Cc2c[nH]c3ccccc23)NC(=O)[C@H]([C@@H](C)CC)NC1=O` [Compound 6] (Ac-ICIWQDWGSHRCT-NH2; disulfide 2-12), the half-maximal inhibitory concentration (IC50) amounted to 0.14 µM.

A word on the IC50: it is the point on the concentration scale where inhibition reaches its midpoint.
